The values that follow come from patent US20260232824A1, “ANTI-CD180 BINDING MOLECULES AND USES THEREOF” (Champions Oncology, Inc., priority 2023, published 2026).

In experiment [1] the test system is panel of cancer cell lines. The settings on record: cited from earlier work.
The target in the next experiment is T1, CD19 (Homo sapiens, UniProt P15391).
T1 construct: endogenous in cells
T1 sequence (P15391 20-556): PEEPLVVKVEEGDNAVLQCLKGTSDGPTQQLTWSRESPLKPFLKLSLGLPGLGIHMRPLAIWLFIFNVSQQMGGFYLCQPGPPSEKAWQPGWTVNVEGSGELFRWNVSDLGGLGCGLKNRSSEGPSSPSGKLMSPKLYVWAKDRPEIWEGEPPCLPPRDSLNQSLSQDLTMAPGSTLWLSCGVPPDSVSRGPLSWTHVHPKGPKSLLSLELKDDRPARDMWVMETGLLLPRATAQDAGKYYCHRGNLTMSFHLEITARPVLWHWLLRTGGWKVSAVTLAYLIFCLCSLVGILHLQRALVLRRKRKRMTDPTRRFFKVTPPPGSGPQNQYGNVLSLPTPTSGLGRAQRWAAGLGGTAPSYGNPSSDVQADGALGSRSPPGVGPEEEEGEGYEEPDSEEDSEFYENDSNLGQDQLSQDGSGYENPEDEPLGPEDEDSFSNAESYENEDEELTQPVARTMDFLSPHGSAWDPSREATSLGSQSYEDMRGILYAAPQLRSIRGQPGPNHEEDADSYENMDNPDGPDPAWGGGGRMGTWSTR
In words: CD19 expression versus in vitro activity of comparative ADC. The experiment is classed as cell-based. The settings on record: FIG. 27A.

For the molecule `COc1cc2c(cc1OCCCCCOc1cc3c(cc1OC)C(=O)N1C=C(C)C[C@H]1C=N3)N=C[C@@H]1CC(C)=CN1C2=O` [SG3199], the “activity in a panel of cancer cell lines” value in experiment [1] is given as “picomolar activity”. Take “Lonca Tesirine: loncastuximab tesirine-lpyl”: the “correlation of CD19 expression with in vitro activity” value in the experiment with CD19 is given as “CD19 expression correlated with in vitro activity”.
